The results in this text go back to patent US10669272B2, “Substituted naphthyridinone compounds useful as T cell activators” (BRISTOL-MYERS SQUIBB COMPANY, priority 2018, dated 2020).

Each structure is given as a SMILES string. Where two headings read alike, the source gives them in different places. Some results are limits rather than exact numbers.

Test [1] concerns the target T1, human DGKζ (Homo sapiens, UniProt Q13574).
T1 construct: TVMV protease cleavage site (C); Hexa-His (C); made in house; host or cells: Sf9 insect cells (baculovirus, Bac-to-Bac)
The test is described as follows: DGKζ LIPGLO assay (extruded liposome substrate), in vitro DGK inhibition. To be noted: read-out: DGKz LIPGLO IC50. The class given is biochemical.

Test [2] deals with T2, human DGKα (Homo sapiens, UniProt P23743).
T2 construct: TVMV protease cleavage site (C); Hexa-His (C); made in house; host or cells: Sf9 insect cells (baculovirus, Bac-to-Bac)
The test can be described thus: DGKα LIPGLO assay (extruded liposome substrate), in vitro DGK inhibition. The class given is biochemical. As to conditions: read-out: DGKa LIPGLO IC50.

T2 sequence (P23743 with tags, fused parts or gaps): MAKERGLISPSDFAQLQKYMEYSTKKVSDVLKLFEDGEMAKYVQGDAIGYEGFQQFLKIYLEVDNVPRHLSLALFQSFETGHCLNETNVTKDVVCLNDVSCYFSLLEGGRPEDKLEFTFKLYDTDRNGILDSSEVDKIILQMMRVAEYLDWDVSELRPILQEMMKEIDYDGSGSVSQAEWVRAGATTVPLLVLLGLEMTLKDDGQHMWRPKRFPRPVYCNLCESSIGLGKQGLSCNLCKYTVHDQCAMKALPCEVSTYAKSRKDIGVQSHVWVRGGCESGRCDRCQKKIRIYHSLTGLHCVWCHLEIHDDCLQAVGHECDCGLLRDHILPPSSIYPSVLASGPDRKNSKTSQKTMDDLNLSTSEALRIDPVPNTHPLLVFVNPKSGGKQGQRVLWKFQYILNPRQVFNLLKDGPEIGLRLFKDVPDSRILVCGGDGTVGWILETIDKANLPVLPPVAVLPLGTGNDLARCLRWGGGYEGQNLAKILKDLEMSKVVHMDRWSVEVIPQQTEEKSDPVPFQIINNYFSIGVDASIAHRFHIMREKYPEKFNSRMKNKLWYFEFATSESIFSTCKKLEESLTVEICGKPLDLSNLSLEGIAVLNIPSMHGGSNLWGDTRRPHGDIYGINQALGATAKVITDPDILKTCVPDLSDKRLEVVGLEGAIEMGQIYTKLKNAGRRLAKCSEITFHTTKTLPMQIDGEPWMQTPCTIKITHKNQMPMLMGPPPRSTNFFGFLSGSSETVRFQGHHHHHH
T1 sequence (Q13574 with tags, fused parts or gaps isoform Q13574-4): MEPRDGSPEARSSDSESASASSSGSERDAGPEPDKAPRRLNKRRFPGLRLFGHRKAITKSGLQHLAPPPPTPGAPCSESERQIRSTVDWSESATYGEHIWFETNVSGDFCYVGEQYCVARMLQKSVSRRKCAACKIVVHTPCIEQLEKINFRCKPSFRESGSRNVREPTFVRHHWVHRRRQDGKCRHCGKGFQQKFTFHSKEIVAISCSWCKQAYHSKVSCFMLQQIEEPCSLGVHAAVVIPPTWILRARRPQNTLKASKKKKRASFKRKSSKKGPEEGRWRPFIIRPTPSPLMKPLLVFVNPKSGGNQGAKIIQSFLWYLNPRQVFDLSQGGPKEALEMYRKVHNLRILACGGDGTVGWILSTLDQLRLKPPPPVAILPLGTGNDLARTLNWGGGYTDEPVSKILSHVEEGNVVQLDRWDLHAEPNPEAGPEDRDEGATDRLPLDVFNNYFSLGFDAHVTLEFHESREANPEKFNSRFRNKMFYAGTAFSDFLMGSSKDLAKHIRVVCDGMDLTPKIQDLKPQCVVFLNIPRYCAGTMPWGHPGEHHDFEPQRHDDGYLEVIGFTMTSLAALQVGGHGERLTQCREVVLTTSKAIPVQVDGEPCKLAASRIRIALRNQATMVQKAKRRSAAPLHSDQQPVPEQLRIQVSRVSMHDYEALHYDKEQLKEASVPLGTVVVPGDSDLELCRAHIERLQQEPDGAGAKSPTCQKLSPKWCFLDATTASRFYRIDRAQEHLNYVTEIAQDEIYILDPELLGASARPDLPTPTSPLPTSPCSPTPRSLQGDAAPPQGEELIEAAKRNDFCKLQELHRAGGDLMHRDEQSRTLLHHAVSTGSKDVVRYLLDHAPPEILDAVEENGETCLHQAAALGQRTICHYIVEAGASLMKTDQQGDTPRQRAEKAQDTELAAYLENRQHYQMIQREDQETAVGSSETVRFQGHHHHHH

A word on the IC50: it is the concentration that gives 50% inhibition. Turning to `C[C@@H]1CN(c2cc(=O)n(C)c3ccc(C#N)nc23)[C@@H](C)CN1C(c1ccc(F)cc1)c1nnc(C2CC2)s1` (single isomer, unassigned) [Example 775], the results for the IC50 in test [1] (DGKζ liposome (LIPGLO) assay) and in test [2] (DGKα liposome (LIPGLO) assay) were 6.6 µM and 5.8 µM, respectively.
Turning to `C[C@@H]1CN(c2cc(=O)n(C)c3ccc(C#N)nc23)[C@@H](C)CN1C(c1ccc(OC(F)(F)F)cc1)c1ccccn1` (stereo partly drawn) [Example 405, 8-((2S,5R)-2,5-dimethyl-4-(pyridin-2-yl(4-(trifluoromethoxy)phenyl)methyl)piperazin-1-yl)-5-methyl-6-oxo-5,6-dihydro-1,5-naphthyridine-2-carbonitrile], the IC50 came to 4 µM in test [1] (liposome (LIPGLO) assay) and 0.46 µM in test [2] (liposome (LIPGLO) assay).
Turning to `COc1ccc(C(C)N2C[C@H](C)N(c3cc(=O)n(C)c4ccc(C#N)nc34)C[C@H]2C)cc1OCCN1CCOCC1` (stereo partly drawn) [Example 1304], the IC50 in test [1] (liposome (LIPGLO) assay) came out at 17 µM; in test [2] (liposome (LIPGLO) assay), 110 µM.
For the compound `CCC(c1cc(Cl)cc2c1OCC2)N1C[C@H](C)N(c2cc(=O)n(C)c3ccc(C#N)nc23)C[C@H]1C` (stereo partly drawn) [Example 353, 8-((2S,5R)-4-(1-(5-chloro-2,3-dihydrobenzofuran-7-yl)propyl)-2,5-dimethylpiperazin-1-yl)-5-methyl-6-oxo-5,6-dihydro-1,5-naphthyridine-2-carbonitrile], the IC50 in test [1] (liposome (LIPGLO) assay) was 1.4 µM; in test [2] (liposome (LIPGLO) assay), 72 µM.
For `C[C@@H]1CN(c2c(C#N)c(=O)n(C)c3ccc(C#N)nc23)CCN1Cc1c(F)cccc1Cl` [Example 984], the IC50 in test [1] (DGKζ liposome (LIPGLO) assay) worked out at 0.88 µM; in test [2] (DGKα liposome (LIPGLO) assay), 1.5 µM.
As to `COC[C@@H]1CN(c2cc(=O)n(C)c3ccc(C#N)nc23)[C@@H](C)CN1C(C)c1ccc(OC(F)(F)F)cc1` (single isomer, unassigned) [Example 1162], the 50% inhibitory concentration (IC50) in test [1] (liposome (LIPGLO) assay) was determined as 0.55 µM; in test [2] (liposome (LIPGLO) assay), 0.48 µM.
Turning to `CC(c1ccc(F)c(C#N)c1)N1C[C@H](C)N(c2cc(=O)n(C)c3ccc(C#N)nc23)C[C@H]1C` (stereo partly drawn) [Example 1262], the figures for the concentration for half-maximal inhibition (IC50) in test [1] (liposome (LIPGLO) assay) and in test [2] (liposome (LIPGLO) assay) were 1.3 µM and 5.4 µM, respectively.
With `Cn1c(=O)c(C#N)c(N2CCN(C(c3ccc(F)cc3)c3ccc(F)cc3)C(C(=O)O)C2)c2nc(Br)ccc21` (stereo not drawn) [Example 52, 1-(bis(4-fluorophenyl)methyl)-4-(6-bromo-3-cyano-1-methyl-2-oxo-1,2-dihydro-1,5-naphthyridin-4-yl)piperazine-2-carboxylic acid], the half-maximal inhibitory concentration (IC50) stood at 150 µM in test [1] (liposome (LIPGLO) assay) and 24 µM in test [2] (liposome (LIPGLO) assay).
Take `C[C@@H]1CN(c2cc(=O)n(C)c3ccc(C#N)nc23)[C@@H](C)CN1C(c1ccc(F)cc1)c1ccncn1` (single isomer, unassigned) [Example 402]: the IC50 in test [1] (liposome (LIPGLO) assay) turned out to be 9.3 µM; in test [2] (liposome (LIPGLO) assay) it was 0.82 µM.
With `CC(c1cc(F)c(F)cc1Cl)N1C[C@H](C)N(c2cc(=O)n(C)c3ccc(C#N)nc23)C[C@H]1C` (stereo partly drawn) [Example 486, 8-((2S,5R)-4-(1-(2-chloro-4,5-difluorophenyl)ethyl)-2,5-dimethylpiperazin-1-yl)-5-methyl-6-oxo-5,6-dihydro-1,5-naphthyridine-2-carbonitrile], the IC50 in test [1] (liposome (LIPGLO) assay) turned out to be 14 µM; in test [2] (liposome (LIPGLO) assay), 27 µM.
Consider `C[C@@H]1CN(c2cc(=O)n(C)c3ccc(C#N)nc23)[C@@H](C)CN1C(c1ccc(OC(F)(F)F)cc1)c1ccccn1` (stereo partly drawn) [Example 377, 8-((2S,5R)-2,5-dimethyl-4-(pyridin-2-yl(4-(trifluoromethoxy)phenyl)methyl)piperazin-1-yl)-5-methyl-6-oxo-5,6-dihydro-1,5-naphthyridine-2-carbonitrile], for which the IC50 in test [1] (liposome (LIPGLO) assay) was 3.9 µM; in test [2] (liposome (LIPGLO) assay), 0.31 µM.
On to `C[C@@H]1CN(c2cc(=O)n(C)c3ccc(C#N)nc23)[C@@H](C)CN1C(c1ccc(F)cc1)c1nc(C2CC2)co1` (stereo partly drawn) [Example 776, 8-((2S,5R)-4-((4-cyclopropyloxazol-2-yl)(4-fluorophenyl)methyl)-2,5-dimethylpiperazin-1-yl)-5-methyl-6-oxo-5,6-dihydro-1,5-naphthyridine-2-carbonitrile], for which the concentration for half-maximal inhibition (IC50) in test [1] (DGKζ liposome (LIPGLO) assay) was 0.038 µM; in test [2] (DGKα liposome (LIPGLO) assay), 0.055 µM.
For `C[C@@H]1CN(c2c(C#N)c(=O)n(C)c3ccc(Br)nc23)CCN1C(c1ccc(Cl)cc1)c1ccc(Cl)cc1` [Example 102, (R)-4-(4-(bis(4-chlorophenyl)methyl)-3-methylpiperazin-1-yl)-6-bromo-1-methyl-2-oxo-1,2-dihydro-1,5-naphthyridine-3-carbonitrile], the IC50 worked out at 8.3 µM in test [1] (liposome (LIPGLO) assay) and 2.9 µM in test [2] (liposome (LIPGLO) assay).
For `CC[C@H]1CN(C(c2ccc(F)cc2)c2csc(C(F)(F)F)n2)[C@H](CC)CN1c1cc(=O)n(C)c2ccc(C#N)nc12` (single isomer, unassigned) [Example 1362] the same measures were 0.05 µM and 0.16 µM.
In the case of `CC(c1ccc(C(=O)O)cc1)N1C[C@H](C)N(c2c(C#N)c(=O)n(C)c3ccc(C#N)nc23)C[C@H]1C` (stereo partly drawn) [Example 786], the IC50 in test [1] (DGKζ liposome (LIPGLO) assay) was 83 µM; in test [2] (DGKα liposome (LIPGLO) assay) it was above 250 µM.
Turning to `COC[C@@H]1CN(c2cc(=O)n(C)c3ccc(C#N)nc23)[C@@H](C)CN1C(c1ccc(F)cc1)c1nc(C2CC2)no1` (stereo partly drawn) [Example 1393, 8-((2S,5S)-4-((3-cyclopropyl-1,2,4-oxadiazol-5-yl)(4-fluorophenyl)methyl)-5-(methoxymethyl)-2-methylpiperazin-1-yl)-5-methyl-6-oxo-5,6-dihydro-1,5-naphthyridine-2-carbonitrile], the IC50 stood at 0.016 µM in test [1] (liposome (LIPGLO) assay) and 0.022 µM in test [2] (liposome (LIPGLO) assay).
With `CC(c1ccc(OC(F)(F)F)cc1)N1C[C@@H](C)N(c2cc(=O)n(C)c3ccc(C#N)nc23)C[C@@H]1CO` (single isomer, unassigned) [Example 1181], the IC50 turned out to be 2.5 µM in test [1] (liposome (LIPGLO) assay) and 77 µM in test [2] (liposome (LIPGLO) assay).
`C[C@@H]1CN(c2cc(=O)n(C)c3ccc(C#N)nc23)[C@@H](C)CN1C(c1ccc(F)cc1)c1nnc(C2CC2)s1` (stereo partly drawn) [Example 774, 8-((2S,5R)-4-((5-cyclopropyl-1,3,4-thiadiazol-2-yl)(4-fluorophenyl)methyl)-2,5-dimethylpiperazin-1-yl)-5-methyl-6-oxo-5,6-dihydro-1,5-naphthyridine-2-carbonitrile]: the IC50 turned out to be 1.1 µM in test [1] (DGKζ liposome (LIPGLO) assay) and 0.63 µM in test [2] (DGKα liposome (LIPGLO) assay).
For `C[C@@H]1CN(c2c(C#N)c(=O)n(C)c3ccc(C#N)nc23)CCN1C(c1ccc(Cl)cc1)c1ncccc1F` (stereo partly drawn) [Example 909], the IC50 in test [1] (DGKζ liposome (LIPGLO) assay) amounted to 16 µM; in test [2] (DGKα liposome (LIPGLO) assay) it was 3.4 µM.
Take `C[C@@H]1CN(c2cc(=O)n(C)c3ccc(C#N)nc23)[C@@H](C)CN1C(c1cccc(F)c1)c1ccc(C(F)(F)F)cn1` (single isomer, unassigned) [Example 371]: the half-inhibitory concentration (IC50) in test [1] (liposome (LIPGLO) assay) worked out at 2.1 µM; in test [2] (liposome (LIPGLO) assay) it was 3 µM.
The matching figures for `Cc1ccnc(C(c2ccc(Cl)cc2)N2C[C@H](C)N(c3cc(=O)n(C)c4ccc(C#N)nc34)C[C@H]2C)c1` (single isomer, unassigned) [Example 364]: 3.9 µM and 1.6 µM.
Regarding `CC(c1ccc(OC(F)F)cn1)N1C[C@H](C)N(c2cc(=O)n(C)c3ccc(C#N)nc23)C[C@H]1C` (stereo partly drawn) [Example 653], the concentration for half-maximal inhibition (IC50) in test [1] (liposome (LIPGLO) assay) was 1.1 µM; in test [2] (liposome (LIPGLO) assay), 0.094 µM.
For `COC(=O)c1ccc(C(C)N2C[C@H](C)N(c3c(C#N)c(=O)n(C)c4ccc(C#N)nc34)C[C@H]2C)cc1` (single isomer, unassigned) [Example 794], the figures for the IC50 in test [1] (DGKζ liposome (LIPGLO) assay) and in test [2] (DGKα liposome (LIPGLO) assay) were 120 µM and 24 µM, respectively.
Consider `Cc1ccc(C(c2cccc(F)c2)N2C[C@H](C)N(c3cc(=O)n(C)c4ccc(C#N)nc34)C[C@H]2CO)nc1` (stereo partly drawn) [Example 1153], for which the half-maximal inhibitory concentration (IC50) in test [1] (liposome (LIPGLO) assay) turned out to be 32 µM; in test [2] (liposome (LIPGLO) assay) it was 6.6 µM.
